One block for each compound: values may come before it.
What was measured:
Type in all cases: cell-based
GLUT2 = target: T1, GLUT2 (Homo sapiens, UniProt P11168); test: [3H]-2-deoxyglucose uptake in GLUT-expressing HEK293 cells; details: 50 µM 2-deoxyglucose, 4 min; pH 7.3; labelled compound
T1 construct: gene SLC2A2
T1 sequence (P11168 1-524): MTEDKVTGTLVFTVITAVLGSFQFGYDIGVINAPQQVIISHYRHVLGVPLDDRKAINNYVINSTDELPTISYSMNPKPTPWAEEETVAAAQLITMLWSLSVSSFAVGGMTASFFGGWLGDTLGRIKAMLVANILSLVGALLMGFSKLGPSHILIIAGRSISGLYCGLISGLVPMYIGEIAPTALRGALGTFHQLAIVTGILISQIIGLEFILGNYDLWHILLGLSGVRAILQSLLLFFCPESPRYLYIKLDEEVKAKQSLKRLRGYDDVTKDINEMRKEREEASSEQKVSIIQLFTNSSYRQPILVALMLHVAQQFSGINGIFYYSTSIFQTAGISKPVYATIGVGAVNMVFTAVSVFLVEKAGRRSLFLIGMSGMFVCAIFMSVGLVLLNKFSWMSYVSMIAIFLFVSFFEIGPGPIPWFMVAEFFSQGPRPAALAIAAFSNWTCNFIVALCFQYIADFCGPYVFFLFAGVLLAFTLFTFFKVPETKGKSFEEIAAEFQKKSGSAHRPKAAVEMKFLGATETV

GLUT10 = target: T2, GLUT10 (Homo sapiens, UniProt O95528); test: as above
T2 construct: gene SLC2A10
T2 sequence (O95528 1-541): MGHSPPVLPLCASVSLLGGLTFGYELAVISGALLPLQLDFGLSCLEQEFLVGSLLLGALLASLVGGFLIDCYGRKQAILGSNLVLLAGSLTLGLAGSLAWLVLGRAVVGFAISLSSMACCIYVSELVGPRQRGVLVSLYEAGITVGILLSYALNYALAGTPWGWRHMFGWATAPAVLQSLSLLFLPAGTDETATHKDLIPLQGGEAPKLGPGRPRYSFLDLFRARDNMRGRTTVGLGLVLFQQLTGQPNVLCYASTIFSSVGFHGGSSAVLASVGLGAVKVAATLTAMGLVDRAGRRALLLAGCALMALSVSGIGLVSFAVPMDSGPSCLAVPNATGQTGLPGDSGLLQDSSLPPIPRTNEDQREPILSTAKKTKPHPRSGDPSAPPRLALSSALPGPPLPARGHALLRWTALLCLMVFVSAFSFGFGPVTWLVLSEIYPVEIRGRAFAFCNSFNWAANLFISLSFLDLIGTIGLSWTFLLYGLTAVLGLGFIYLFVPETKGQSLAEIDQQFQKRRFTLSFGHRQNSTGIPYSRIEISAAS

GLUT4 = target: T3, GLUT4 (Homo sapiens, UniProt P14672); test: as above
T3 construct: gene SLC2A4
T3 sequence (P14672 1-509): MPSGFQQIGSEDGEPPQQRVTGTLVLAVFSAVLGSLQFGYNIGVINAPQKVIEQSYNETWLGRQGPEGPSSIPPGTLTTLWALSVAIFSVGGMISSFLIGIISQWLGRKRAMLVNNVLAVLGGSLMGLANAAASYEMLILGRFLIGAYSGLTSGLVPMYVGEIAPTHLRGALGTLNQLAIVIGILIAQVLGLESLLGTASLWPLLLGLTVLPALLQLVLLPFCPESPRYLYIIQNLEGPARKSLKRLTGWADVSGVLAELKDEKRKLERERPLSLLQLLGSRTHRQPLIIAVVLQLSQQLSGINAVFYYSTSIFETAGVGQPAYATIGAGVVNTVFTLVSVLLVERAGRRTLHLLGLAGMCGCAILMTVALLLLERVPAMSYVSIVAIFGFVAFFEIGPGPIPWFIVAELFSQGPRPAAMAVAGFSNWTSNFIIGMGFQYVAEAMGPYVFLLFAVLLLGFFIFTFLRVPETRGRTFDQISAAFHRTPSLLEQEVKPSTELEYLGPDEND

GLUT6 = target: T4, GLUT6 (Homo sapiens, UniProt Q9UGQ3); test: as above
T4 construct: gene SLC2A6
T4 sequence (Q9UGQ3 1-507): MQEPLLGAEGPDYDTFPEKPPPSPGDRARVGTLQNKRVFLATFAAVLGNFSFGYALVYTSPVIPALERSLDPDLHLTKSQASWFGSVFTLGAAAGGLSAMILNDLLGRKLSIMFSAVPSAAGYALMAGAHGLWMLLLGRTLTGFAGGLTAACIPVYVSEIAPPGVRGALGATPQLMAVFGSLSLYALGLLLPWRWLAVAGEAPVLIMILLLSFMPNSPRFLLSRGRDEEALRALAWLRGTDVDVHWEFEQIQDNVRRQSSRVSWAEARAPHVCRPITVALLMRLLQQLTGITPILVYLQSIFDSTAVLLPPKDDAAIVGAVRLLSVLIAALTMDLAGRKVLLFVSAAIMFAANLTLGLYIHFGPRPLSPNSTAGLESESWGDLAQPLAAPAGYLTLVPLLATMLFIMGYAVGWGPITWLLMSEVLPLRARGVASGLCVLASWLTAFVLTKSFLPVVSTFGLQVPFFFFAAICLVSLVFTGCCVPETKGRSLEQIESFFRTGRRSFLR

GLUT5 = target: T5, GLUT5 (Homo sapiens, UniProt P22732); test: [3H]-D-fructose uptake in GLUT-expressing HEK293 cells; details: 4 µM fructose, 2 min; pH 7.3; labelled compound
T5 construct: gene SLC2A5
T5 sequence (P22732 1-501): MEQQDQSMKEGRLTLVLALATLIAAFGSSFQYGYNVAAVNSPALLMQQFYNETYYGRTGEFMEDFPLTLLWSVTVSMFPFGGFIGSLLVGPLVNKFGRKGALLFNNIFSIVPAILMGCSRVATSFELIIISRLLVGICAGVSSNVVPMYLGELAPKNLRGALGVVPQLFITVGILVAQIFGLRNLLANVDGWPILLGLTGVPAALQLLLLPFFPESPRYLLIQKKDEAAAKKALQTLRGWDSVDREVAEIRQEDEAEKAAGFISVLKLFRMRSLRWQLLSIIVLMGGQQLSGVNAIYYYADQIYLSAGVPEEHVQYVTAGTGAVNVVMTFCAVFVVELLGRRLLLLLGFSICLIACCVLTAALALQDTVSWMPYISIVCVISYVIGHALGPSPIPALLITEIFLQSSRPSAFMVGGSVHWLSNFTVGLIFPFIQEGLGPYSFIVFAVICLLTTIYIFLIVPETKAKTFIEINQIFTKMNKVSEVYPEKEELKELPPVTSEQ

Compound: OC[C@H]1OC(O)C[C@@H](O)[C@@H]1O (some centres unmarked) [[^3H]-2-deoxyglucose]
[3H]-2-deoxyglucose uptake in GLUT-expressing HEK293 cells (GLUT2): HEK293 cells that stably express human GLUT transporters were incubated

IC50 (GLUT10): 1700 nM
IC50 (GLUT4): 5400 nM
IC50 (GLUT6): 2200 nM
Compound: Cc1c(NC(=O)c2cc(C(N)=O)nc3cc(F)ccc23)c(C(F)(F)F)nn1Cc1ccc(C#N)cc1 [BAY-876]

Compound: OCC1(O)OC[C@@H](O)[C@@H](O)[C@@H]1O (stereo partly drawn) [[^3H]-D-fructose]
[3H]-D-fructose uptake in GLUT-expressing HEK293 cells (GLUT5): Fructose transport through GLUT5 was not impaired by BAY-876

Reference: article PMC9776291 (Biomolecules, 2022)
